Data as given in patent publication US6599905B2, “Pyrazine compounds” (SmithKline Beecham Corporation, priority 1997, dated 2003).

| melting point | SMILES |
| --- | --- |
| 212 to 214 °C | O=C(Nc1cnc(-c2cc(Cl)cc(Cl)c2Cl)c(NC(=O)C2CC2)n1)C1CC1 [Example 9, 2,6-Dicyclopropylcarbonylamino-3-(2,3,5-trichlorophenyl) pyrazine] |
| 240 to 244 °C | Nc1nc(NC(=O)C2CC2)cnc1-c1cc(Cl)cc(Cl)c1Cl [Example 9, 2-Amino-6-cyclopropylcarbonylamino-3-(2,3,5-trichlorophenyl)pyrazine] |
| 227 to 229 °C | CC(C)C(=O)Nc1cnc(-c2cc(Cl)cc(Cl)c2Cl)c(NC(=O)C(C)C)n1 [Example 10, 2,6-Diisopropylcarbonylamino-3-(2,3,5-trichlorophenyl) pyrazine] |
| 277 to 279 °C | N#Cc1nc(-c2cc(Cl)cc(Cl)c2Cl)c(N)nc1N [Example 17, 5-Cyano-2,6-Diamino-3-(2,3,5-trichlorophenyl)pyrazine] |
